Experimental data published in BindingDB's records for doi:10.1016/S0960-894X(01)80714-9 (1993).

Assays:
[1] = The compound was evaluated in vitro for the inhibition of pancreatitic porcine elastase(PPE)
[2] = The compound was evaluated in vitro for the inhibition of rat leukocyte elastase(RLE)

IC50 [1]	IC50 [2]	SMILES
26 µM	11 µM	CO[C@@H]1C(=O)N(C(C)=O)[C@@H]1C(C)=O [(3S,4S)-1,4-Diacetyl-3-methoxy-azetidin-2-one]
0.7 µM	0.4 µM	CO[C@@H]1C(=O)N(C(C)=O)[C@@H]1c1ccccc1 [(3S,4R)-1-Acetyl-3-methoxy-4-phenyl-azetidin-2-one]
> 160 µM	37 µM	CCCC[C@@H]1C(=O)N(C(C)=O)[C@@H]1C(C)=O [(3S,4S)-1,4-Diacetyl-3-butyl-azetidin-2-one]
